From patent US8916579B2, “5-fluoropyrimidinone derivatives” (Dow AgroSciences, LLC., priority 2009, dated 2014)
Read-outs that look alike come from different tables or passages of the source.

What was measured:
[1] = system: Mycosphaerella graminicola; anamorph: Septoria tritici; Bayer code SEPTTR; assay: Fungicidal activity: leaf blotch of wheat, greenhouse wheat plants (variety Yuma), percent disease control; assay type: in vivo; conditions: Zymoseptoria tritici
Method: Evaluation of Fungicidal Activity: Leaf Blotch of Wheat (Mycosphaerella graminicola; anamorph: Septoria tritici; Bayer code SEPTTR)
Wheat plants (variety Yuma) were grown from seed in a greenhouse in 50% mineral soil/50% soil-less Metro mix until the first leaf was fully emerged, with 7-10 seedlings per pot. These plants were inoculated with an aqueous spore suspension of Septoria tritici either prior to or after fungicide treatments. After inoculation the plants were kept in 100% relative humidity (one day in a dark dew chamber followed by two to three days in a lighted dew chamber) to permit spores to germinate and infect the leaf. The plants were then transferred to a greenhouse for disease to develop.
The effectiveness of the test compounds in controlling disease was determined by assessing the severity of disease on treated plants, then converting the severity to percent control based on the level of disease on untreated, inoculated plants. • In each case of Table II the rating scale is as follows: […]

[2] = 24 h, One-Day Protectant (1DP), 100 ppm, wheat plants, read-out: SEPTTR 100 PPM 1DP (% Disease Control rating)
[3] = 72 h, Three-Day Curative (3DC), 100 ppm, wheat plants, read-out: SEPTTR 100 PPM 3DC (% Disease Control rating)
[4] = 24 h, read-out: SEPTTR 100 PPM 1DP (% Disease Control rating)
[5] = 72 h, read-out: SEPTTR 100 PPM 3DC (% Disease Control rating)

| SMILES | pest or weed control at 100 ppm [1, 2] [%] | pest or weed control at 100 ppm [1, 3] [%] | melting point | pest or weed control at 100 ppm [1, 4] [%] | pest or weed control at 100 ppm [1, 5] [%] |
| --- | --- | --- | --- | --- | --- |
| O=C(Nc1nc(=O)n(CC2CC2)cc1F)OCc1ccccc1 [Compound 81] | 26 to 50 | 76 to 100 | 228 to 230 °C | – | – |
| Nc1nc(=O)n(CCCCI)cc1F [Compound 26, 4-amino-5-fluoro-1-(4-iodobutyl)-1H-pyrimidin-2-one] | – | – | 181 to 184 °C | 0 to 25 | 26 to 50 |
| CCCC(=O)OCn1cc(F)c(/N=C/N(C)C)nc1=O [Compound 13] | 76 to 100 | 76 to 100 | 109 to 111 °C | – | – |
| COc1ccc(-n2cc(F)c(N)nc2=O)cc1OC [Compound 40] | 0 to 25 | 0 to 25 | 244.8 to 245.6 °C | – | – |
| CCCCCNC(=O)Nc1nc(=O)n(CC2CC2)cc1F [Compound 87] | 0 to 25 | 51 to 75 | 113 to 114.9 °C | – | – |
| CC(C)Cn1cc(F)c(N)nc1=O [Compound 77] | 26 to 50 | 0 to 25 | 140 to 142.8 °C | – | – |
| COCCOCn1cc(F)c(N)nc1=O [Compound 16] | 0 to 25 | 0 to 25 | 160 to 163 °C | – | – |
| CN(C)CNc1nc(=O)n(CN(C)C)cc1F [Compound 3] | 76 to 100 | 76 to 100 | 157 to 187 °C (dec.) | – | – |
| CC(C)COC(=O)Nc1nc(=O)n(C)cc1F [Compound 10, (5-fluoro-1-methyl-2-oxo-1,2-dihydropyrimidin-4-yl)carbamic acid isobutyl ester] | – | – | 126 to 128 °C | 26 to 50 | 51 to 75 |
| CCOC(=O)Nc1nc(=O)n(CC2CC2)cc1F [Compound 80, ethyl 1-(cyclopropylmethyl)-5-fluoro-2-oxo-1,2-dihydropyrimidin-4-ylcarbamate] | – | – | 90 to 92 °C | 0 to 25 | 51 to 75 |
| CSCn1cc(F)c(/N=C/N(C)C)nc1=O [Compound 24, N′-(5-fluoro-1-methylsulfanylmethyl-2-oxo-1,2-dihydropyrimidin-4-yl)-N,N-dimethylformamidine] | – | – | 132 to 136 °C | 76 to 100 | 76 to 100 |
| COc1ccc(-n2cc(F)c(NCc3ccccc3F)nc2=O)cc1OC [Compound 66] | 0 to 25 | 0 to 25 | 206.3 to 207.9 °C | – | – |
| CCCCCNC(=O)Nc1nc(=O)n(CSC)cc1F [Compound 92] | 76 to 100 | 76 to 100 | 100.2 to 101.8 °C | – | – |
| Nc1nc(=O)n(CC2CCCO2)cc1F (stereo not drawn) [Compound 76] | 0 to 25 | 51 to 75 | 179.2 to 181.1 °C | – | – |
| Cc1ccc(Cn2cc(F)c(/N=C/N(C)C)nc2=O)cc1 [Compound 7] | 0 to 25 | 0 to 25 | 178 to 179 °C | – | – |
| O=C(Nc1nc(=O)n(CC2CCCO2)cc1F)c1ccccc1F (stereo not drawn) [Compound 96] | 0 to 25 | 26 to 50 | 119.8 to 121.9 °C | – | – |
| CCOC(=O)Cn1cc(F)c(/N=C/N(C)C)nc1=O [Compound 36] | 51 to 75 | 26 to 50 | 196 to 199 °C | – | – |
| Nc1nc(=O)n(Cc2ccc(F)cc2F)cc1F [Compound 33] | 0 to 25 | 51 to 75 | 250 to 254 °C | – | – |
| C=Cn1cc(F)c(NCc2ccccc2F)nc1=O [Compound 67] | 0 to 25 | 51 to 75 | 168.6 to 169.1 °C | – | – |
| CCCCCNC(=O)Nc1nc(=O)n(Cc2cccnc2)cc1F [Compound 89] | 0 to 25 | 26 to 50 | 146 to 147.6 °C | – | – |
| CC(C)Cn1cc(F)c(NC(=O)c2ccccc2F)nc1=O [Compound 98] | 0 to 25 | 0 to 25 | 161.3 to 163 °C | – | – |
| CC(C)Cn1cc(F)c(NC(=O)c2cccs2)nc1=O [Compound 99] | 0 to 25 | 76 to 100 | 125.6 to 127.5 °C | – | – |
| C[Si](C)(C)CCOCn1cc(F)c(N)nc1=O [Compound 17] | 51 to 75 | 76 to 100 | 187 to 192 °C | – | – |

| SMILES | pest or weed control at 100 ppm [1, 2] [%] | pest or weed control at 100 ppm [1, 3] [%] | melting point | pest or weed control at 100 ppm [1, 4] [%] | pest or weed control at 100 ppm [1, 5] [%] |
| --- | --- | --- | --- | --- | --- |
| CCn1cc(F)c(/N=C/N(C)C)nc1=O [Compound 34, (E)-N′-(1-ethyl-5-fluoro-2-oxo-1,2-dihydropyrimidin-4-yl)-N,N-dimethylformimidamide] | 76 to 100 | 76 to 100 | 157 to 160 °C | – | – |
| Nc1nc(=O)n(CCCCn2cncn2)cc1F [Compound 27, 4-amino-5-fluoro-1-(4-[1,2,4]triazol-1-yl-butyl)-1H-pyrimidin-2-one] | 0 to 25 | 0 to 25 | 197 to 200 °C | – | – |
| C=Cn1cc(F)c(N)nc1=O [Compound 41] | 76 to 100 | 76 to 100 | 213.5 to 214.4 °C | – | – |
| CCCCCCCCOCn1cc(F)c(N)nc1=O [Compound 18] | 26 to 50 | 51 to 75 | 166 to 170 °C | – | – |
| Nc1nc(=O)n(-c2ccc3c(c2)OCO3)cc1F [Compound 47] | 26 to 50 | 0 to 25 | 275 to 279 °C | – | – |
| O=C(Oc1ccccc1)N(C(=O)Oc1ccccc1)c1nc(=O)n(CC2CC2)cc1F [Compound 82] | – | – | 159 to 161 °C | 26 to 50 | 26 to 50 |
| Nc1nc(=O)n(CC2CCOC2)cc1F (stereo not drawn) [Compound 32] | 76 to 100 | 76 to 100 | 255 °C (dec.) | – | – |
| N#Cc1cccc(-n2cc(F)c(N)nc2=O)c1 [Compound 46] | 0 to 25 | 0 to 25 | 175 to 178 °C | – | – |
| COc1ccc(CCn2cc(F)c(N)nc2=O)cc1 [Compound 30] | 0 to 25 | 76 to 100 | 168 to 189 °C | – | – |
| CC(C)(C)C(=O)OCn1cc(F)c(N)nc1=O [Compound 22] | 76 to 100 | 76 to 100 | 259 to 264 °C | – | – |
| Cc1ccc(-n2cc(F)c(N)nc2=O)cc1 [Compound 43] | 26 to 50 | 0 to 25 | 225 to 227 °C | – | – |
| Cc1ccc(NC(=O)Nc2nc(=O)n(CC3CC3)cc2F)cc1 [Compound 88] | 0 to 25 | 51 to 75 | 205.6 to 207.5 °C | – | – |
| CCOC(=O)C(OCC)n1cc(F)c(N)nc1=O (stereo not drawn) [Compound 20] | 0 to 25 | 0 to 25 | 150 to 154 °C | – | – |
| CCn1cc(F)c(N)nc1=O [Compound 29] | 51 to 75 | 76 to 100 | 279 °C (dec.) | – | – |
| CSCn1cc(F)c(NC(=O)Nc2ccccc2Cl)nc1=O [Compound 86] | 26 to 50 | 26 to 50 | 181.8 to 183.5 °C | – | – |
| COc1ccc(-n2cc(F)c(/N=C/N(C)C)nc2=O)cc1OC [Compound 57] | 0 to 25 | 0 to 25 | 196.1 to 198 °C | – | – |
| Nc1nc(=O)n(COCc2ccccc2)cc1F [Compound 14, 4-amino-1-(benzyloxymethyl)-5-fluoropyrimidin-2(1H)-one] | 0 to 25 | 0 to 25 | 213 to 217 °C | – | – |
| C=Cn1cc(F)c(/N=C/N(C)C)nc1=O [Compound 58] | 76 to 100 | 76 to 100 | 179.6 to 181.3 °C | – | – |
| Cn1cc(F)c(N)nc1=O [Compound 28, 4-amino-5-fluoro-1-methylpyrimidin-2(1H)-one] | 51 to 75 | 76 to 100 | 195 °C (dec.) | – | – |
| CN(C)/C=N/c1nc(=O)n(Cc2ccccc2)cc1F [Compound 6] | 0 to 25 | 0 to 25 | 186 to 188 °C | – | – |
| Cc1ccc(NC(=O)Nc2nc(=O)n(Cc3cccnc3)cc2F)cc1 [Compound 90] | 0 to 25 | 0 to 25 | 178.2 to 180 °C | – | – |
| CN(C)/C=N/c1nc(=O)n(Cc2ccc(F)c(F)c2)cc1F [Compound 35] | 51 to 75 | 51 to 75 | 196 to 200 °C | – | – |
| CCOC(=O)OC(C)n1cc(F)c(N)nc1=O (stereo not drawn) [Compound 23] | 76 to 100 | 76 to 100 | 162 to 166 °C | – | – |
